# Measurements from patent publication US6953785B2, “Estra-1,3,5(10)-triene derivatives” (priority 2000, dated 2005).
# Tests used:
# [1] = biological target: T1, recombinant human estrone sulfatase (Homo sapiens, UniProt P08842); assay: Estrone sulfatase (steroid sulfatase) inhibition test (Method B), 4-methylumbelliferyl sulfate substrate; format: biochemical; settings: 4-methylumbelliferyl sulfate 0.3 mmol/L, pH 7.5, 37° C., 1 hour, read-out: Inhibitory Activity against Steroid Sulfatase IC50
# T1 sequence (P08842 22-583): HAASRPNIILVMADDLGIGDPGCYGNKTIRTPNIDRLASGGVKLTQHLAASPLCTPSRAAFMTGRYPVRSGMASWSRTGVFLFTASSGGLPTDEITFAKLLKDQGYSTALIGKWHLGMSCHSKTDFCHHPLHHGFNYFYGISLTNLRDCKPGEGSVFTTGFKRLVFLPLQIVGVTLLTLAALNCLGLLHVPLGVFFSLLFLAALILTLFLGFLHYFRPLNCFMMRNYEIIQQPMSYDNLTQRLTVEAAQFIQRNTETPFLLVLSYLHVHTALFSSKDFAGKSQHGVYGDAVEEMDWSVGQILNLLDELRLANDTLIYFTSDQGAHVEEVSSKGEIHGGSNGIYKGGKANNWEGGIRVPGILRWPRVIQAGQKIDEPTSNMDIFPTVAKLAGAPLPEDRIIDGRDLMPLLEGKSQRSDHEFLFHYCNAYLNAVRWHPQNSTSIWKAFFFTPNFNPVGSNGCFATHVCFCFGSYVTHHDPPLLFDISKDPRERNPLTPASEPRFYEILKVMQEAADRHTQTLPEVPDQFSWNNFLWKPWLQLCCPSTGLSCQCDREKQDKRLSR
# Method: Estrone Sulfatase (Steroid Sulfatase) Inhibition Test (Method B)
# 4-Methylumbelliferyl sulfate (final concentration 0.3 mmol/L), recombinant human estrone sulfatase (7.8 ng/well) and an estra-1,3,5(10)-triene derivative of each test concentration (the estra-1,3,5(10)-triene derivative was dissolved in 0.001 mL of DMSO) were added to a phosphate buffer (pH 7.5, final volume 0.1 mL) containing 0.28 mol/L of sucrose and 0.04 mol/L of nicotinamide, and the mixture was subjected to enzymatic reaction at 37° C. for 1 hour. The recombinant human estrone sulfatase used herein was prepared from CHO (Chinese hamster ovary) cells, which were transfected with a human estrone sulfatase gene, after partial purification. After the enzymatic reaction, an aqueous solution of 2 mol/L glycine-sodium hydroxide (pH 10.3, 0.13 mL) was added thereto followed by stirring. Using a fluorescent plate reader (Cyto Fluor II), the fluorescent intensity of 4-methylumbelliferone formed in the system was measured. The measurement was carried out at one time by duplication, and the assay fluctuation was 10% or less. The enzymatic reaction in the absence of the test compound was also carried out simultaneously. The inhibitory activity against estrone sulfatase of the test compound of each concentration was calculated according to the equation shown below. Inhibitory Activity against Estrone Sulfatase (%)=100−[100×(A/B)] wherein; • A: the amount of 4-methylumbelliferone formed in the presence of the test compound, • B: the amount of 4-methylumbelliferone formed in the absence of the test compound.
# (§1) The inhibitory activity against estrone sulfatase of the estra-1,3,5(10)-triene derivative tested can be designated by the concentration (IC50) of the derivative that reduces the estrone sulfatase activity to a half of that in the control system not containing the test compound.
# [2] = biological target: T1, recombinant human estrone sulfatase; assay: Estrone sulfatase (steroid sulfatase) inhibition test (Method A), [3H]-estrone sulfate substrate; format: biochemical; settings: [6,7-3H]-estrone sulfate 6.67 μmol/L, pH 7.5, 37° C., 30 minutes, read-out: Inhibitory Activity against Steroid Sulfatase IC50
# Method: Estrone Sulfatase (Steroid Sulfatase) Inhibition Test (Method A)
# [6,7-^3H]-Estrone sulfate (final concentration 6.67 μmol/L; 0.025 μCi/tube), recombinant human estrone sulfatase (33 ng/tube) and an estra-1,3,5(10)-triene derivative of each test concentration (the estra-1,3,5(10)-triene derivative was dissolved in 0.003 mL of DMSO) were added to a phosphate buffer (pH 7.5, final volume 0.15 mL) containing 0.25 mol/L of sucrose and 0.04 mol/L of nicotinamide, and the mixture was subjected to enzymatic reaction at 37° C. for 30 minutes. The recombinant human estrone sulfatase used herein was prepared from CHO (Chinese hamster ovary) cells, which were transfected with a human estrone sulfatase gene, after partial purification. After the enzymatic reaction, toluene (0.5 mL) was added to the reaction mixture followed by stirring, and the mixture was centrifuged at 9000 rpm for 5 minutes. The toluene extract layer was taken out, and the radioactivity of the [^3H]-estrone formed therein was measured with a liquid scintillation counter. The measurement was carried out at one time by duplication, and the assay fluctuation was 10% or less. The enzymatic reaction in the absence of the test compound was also carried out simultaneously. The inhibitory activity against estrone sulfatase of the test compound of each concentration was calculated according to the equation shown below. Inhibitory Activity against Estrone Sulfatase (%)=100−{100×[(A−C)/(B−C)]} wherein; • A: the amount of [^3H]-estrone formed in the presence of the test compound • B: the amount of [^3H]-estrone formed in the absence of the test compound • C: the amount of [^3H]-estrone formed in the absence of both of the recombinant human estrone sulfatase and the test compound.
# as §1
IC50 [1] [nM],IC50 [2] [nM],SMILES
6,,CC12CCC3c4ccc(OS(N)(=O)=O)cc4CCC3C1CC=C2C(=O)NCc1ccc(C(=O)O)cc1 (stereo not drawn) [Compound 37]
,1,CC12CCC3c4ccc(OS(N)(=O)=O)cc4CCC3C1CC=C2C(=O)NC1CCCC1 (stereo not drawn) [Compound 7]
,6,CC12CCC3c4ccc(OS(N)(=O)=O)cc4CCC3C1CCC2C(=O)N1CCCC1 (stereo not drawn) [Compound 73]
17,,COCCOCCOC(=O)C1=CCC2C3CCc4cc(OS(N)(=O)=O)ccc4C3CCC12C (stereo not drawn) [Compound 71]
,3.6,CC12CCC3c4ccc(OS(N)(=O)=O)cc4CCC3C1CC=C2C(=O)NCC1CC1 (stereo not drawn) [Compound 9]
26,,CC(C)(CO)NC(=O)C1=CCC2C3CCc4cc(OS(N)(=O)=O)ccc4C3CCC12C (stereo not drawn) [Compound 23]
8.9,,CCn1nccc1NC(=O)C1=CCC2C3CCc4cc(OS(N)(=O)=O)ccc4C3CCC12C (stereo not drawn) [Compound 62]
,15.5,COCCNC(=O)C1CCC2C3CCc4cc(OS(N)(=O)=O)ccc4C3CCC12C (stereo not drawn) [Compound 76]
6,,CC12CCC3c4ccc(OS(N)(=O)=O)cc4CCC3C1CC=C2C(=O)NNc1ccccn1 (stereo not drawn) [Compound 69]
,10,COC(=O)CCCCCNC(=O)C1=CCC2C3CCc4cc(OS(N)(=O)=O)ccc4C3CCC12C (stereo not drawn) [Compound 14]
12,,CCOC(=O)CC1CCC2C3CCc4cc(OS(N)(=O)=O)ccc4C3CCC12C (stereo not drawn) [Compound 83]
,6.2,CCCNC(=O)C=C1CCC2C3CCc4cc(OS(N)(=O)=O)ccc4C3CCC12C (stereo not drawn) [Compound 81]
12,,CC12CCC3c4ccc(OS(N)(=O)=O)cc4CCC3C1CC=C2c1cccnc1 (stereo not drawn) [Compound 90]
,4.4,CC12CCC3c4ccc(OS(N)(=O)=O)cc4CCC3C1CC=C2C(=O)N1CCCC1 (stereo not drawn) [Compound 1]
,4.5,COC(=O)C(NC(=O)C1=CCC2C3CCc4cc(OS(N)(=O)=O)ccc4C3CCC12C)C(C)C (stereo not drawn) [Compound 29]
5,,COc1ccnc(CNC(=O)C2=CCC3C4CCc5cc(OS(N)(=O)=O)ccc5C4CCC23C)c1 (stereo not drawn) [Compound 47]
,9.4,CC12CCC3c4ccc(OS(N)(=O)=O)cc4CCC3C1CC=C2C(=O)Nc1cnccn1 (stereo not drawn) [Compound 40]
4.5,,CC12CCC3c4ccc(OS(N)(=O)=O)cc4CCC3C1CC=C2C(=O)NCCCc1ccncc1 (stereo not drawn) [Compound 55]
21,,Cc1coc(C2=CCC3C4CCc5cc(OS(N)(=O)=O)ccc5C4CCC23C)n1 (stereo not drawn) [Compound 92]
3.7,,CC12CCC3c4ccc(OS(N)(=O)=O)cc4CCC3C1CC=C2C(=O)N1CCN(c2ccccn2)CC1 (stereo not drawn) [Compound 5]
24.2,,Cc1cnc(CNC(=O)C2=CCC3C4CCc5cc(OS(N)(=O)=O)ccc5C4CCC23C)cn1 (stereo not drawn) [Compound 49]
,5.1,COC(=O)C1CCCN1C(=O)C1=CCC2C3CCc4cc(OS(N)(=O)=O)ccc4C3CCC12C (stereo not drawn) [Compound 33]
,9.8,CC12CCC3c4ccc(OS(N)(=O)=O)cc4CCC3C1CC=C2C(=O)NCCCCO (stereo not drawn) [Compound 22]
10.3,,CCCNC(=O)CC1CCC2C3CCc4cc(OS(N)(=O)=O)ccc4C3CCC12C (stereo not drawn) [Compound 85]
11,,CC12CCC3c4ccc(OS(N)(=O)=O)cc4CCC3C1CCC2CC(=O)N1CCOCC1 (stereo not drawn) [Compound 88]
3.7,,COc1ccc(NC(=O)C2=CCC3C4CCc5cc(OS(N)(=O)=O)ccc5C4CCC23C)cn1 (stereo not drawn) [Compound 39]
,2.8,COCCNC(=O)C1=CCC2C3CCc4cc(OS(N)(=O)=O)ccc4C3CCC12C (stereo not drawn) [Compound 18]
11,,CC12CCC3c4ccc(OS(N)(=O)=O)cc4CCC3C1CC=C2C(=O)Nc1ccon1 (stereo not drawn) [Compound 58]

SMILES,IC50 [1] [nM],IC50 [2] [nM]
C=CCNC(=O)C1=CCC2C3CCc4cc(OS(N)(=O)=O)ccc4C3CCC12C (stereo not drawn) [Compound 10],,5.6
CC12CCC3c4ccc(OS(N)(=O)=O)cc4CCC3C1CC=C2C(=O)Nc1ccccc1 (stereo not drawn) [Compound 34],,10
